From paper PMC5527305, “Prevention of Ophthalmia Neonatorum Caused by Neisseria gonorrhoeae Using a Fatty Acid-Based Formulation” (mBio, 2017)
Converted amounts (≈) assume the structure as drawn.

How the values were obtained:
[1] = system: N. gonorrhoeae strain NCCP11945; experiment: Log reduction assay in GC broth, 2-min exposure; type: cell-based, Neisseria gonorrhoeae
Method: (§1) To find potential candidates, 37 organic acids, esters, and salts were tested in a two-tiered screening process. These candidates were chosen based on the carbon chain lengths of the fatty acids, the presence or absence of saturation, and modifications to represent a diverse selection of organic acid candidates. The first screen aimed to determine the ability of each compound to inhibit the growth of N. gonorrhoeae strain NCCP11945 at 1 mM in GC solid media (Table 1). This strain was chosen due to its relatively recent isolation, its antibiotic resistance profile, and the availability of a complete genome sequence. Those candidates able to inhibit the growth of N. gonorrhoeae strain NCCP11945 were investigated in a second assay. The second assay tested the ability of each compound to cause at least a 4-log reduction in viable bacteria at 1 mM with a 2-min exposure time (Table 1).
(§2) Log reductions were done as described by Bergsson and coworkers ([18]). Briefly, cells were suspended in GC broth (18 g/liter GC base [Oxoid, Limited] with added defined supplements) to an optical density at 520 nm of 0.3, which is approximately equivalent to 10^7 to 10^8 cells per ml ([38]). […] The contents of the tubes were then mixed at room temperature for 2 min and immediately diluted in a 10-fold dilution series to 10^−4. The dilutions were plated by spreading 10 µl on a quarter of a plate; a 100-µl neat solution was also plated. Plates were then incubated at 37°C for 48 h, with all samples plated in duplicate. […] Additional testing at lower concentrations was also done on the eight clinical isolates of European origin.

[2] = system: nine gonococcal isolates (strain NCCP11945 and eight isolates from Public Health England); experiment: Minimum bactericidal concentration by log reduction against nine gonococcal isolates; type: cell-based, Neisseria gonorrhoeae
Text: The seven candidates were further tested against nine gonococcal isolates, including strain NCCP11945 and eight isolates from Public Health England, to find their minimal bactericidal concentration (MBC). This was defined as the lowest concentration tested to give an average 4-log10 reduction in bacterial count after a 2-min exposure. […] Any candidate that killed all gonococcal cells in the cell suspension was given a log reduction score of six.
(§3) The well-characterized N. gonorrhoeae NCCP11945 strain ([36]) was used in the screening stage. Eight isolates obtained from Public Health England, representing circulating isolates from various European locations, were used in the log reduction assays. All isolates were cultured for 24 h prior to testing by plating on GC solid medium (Oxoid Limited, Hampshire, United Kingdom) with Kellogg supplements and incubation at 37°C and 5% CO2 ([37]).
as §2

[3] = system: N. gonorrhoeae on human corneal epithelial cells; experiment: LIVE/DEAD staining of gonococcus-infected human corneal epithelial cells; type: cell-based, Neisseria gonorrhoeae; settings: 1 mM
Method: The LIVE/DEAD BacLight bacterial viability kit for microscopy (Life Technologies, Inc.) was used according to manufacturer’s instructions. After the course of infection, the culture wells were washed five times with sterile 0.85% NaCl to remove nonadhered bacterial cells. Stain was added to each well for 15 min at room temperature before washing in 0.85% saline solution was performed. Glass coverslips were mounted in BacLight mounting oil and visualized on a Nikon Eclipse i80 fluorescence microscope (Nikon United Kingdom) as detailed above.

[4] = system: N. gonorrhoeae strain NCCP11945; experiment: Growth inhibition screen on GC solid media containing 1 mM candidate; type: cell-based, Neisseria gonorrhoeae; settings: 1 mM candidate in GC agar media; Yes = strain NCCP11945 did not grow
Method: as §1, §3

[5] = system: N. gonorrhoeae strain NCCP11945 in coculture with human corneal epithelial cells; experiment: Cell culture infection model, log reduction of N. gonorrhoeae on corneal epithelial cells; type: cell-based, Neisseria gonorrhoeae; settings: for Killing of N. gonorrhoeae in coculture with corneal cells: 1 mM, added at time of infection or 90 min later, 3 h
Method: Because of its potency, resistance to precipitation in the presence of calcium, and nonirritant nature, monocaprin was chosen from the seven candidates to test in a cell culture model with a 2-fold dilution series from 1 mM to 0.125 mM. Bacteria were also challenged with this compound at two different time points, i.e., at the time of the inoculation and 90 min later. […] There was a slight difference in the level of efficacy when monocaprin was used at sub-MBC levels and added 90 min after bacterial inoculation in comparison to addition immediately after inoculation of the bacteria (Fig. 6). This was possibly due to monocaprin hindering attachment of the bacterial cells to the corneal cells when it was added at the time of infection.
Primary cornea epithelial cells (Life Technologies, Inc.) were grown in keratinocyte serum-free medium (Life Technologies, Inc.) at 37°C with 5% CO2 until 80% confluence was reached. Cells were treated with trypsin, washed, added to 24-well plates, and incubated for a further 24 h. The medium was replaced and approximately 10^7 CFU/ml P^+ and Opa^+ N. gonorrhoeae strain NCCP11945 added to reach a host-to-pathogen ratio (multiplicity of infection) of 1:10. Monocaprin (1 mM, 0.5 mM, 0.25 mM, or 0.125 mM) was added either at 0 min or at 90 min after seeding with N. gonorrhoeae. Controls included noninfected, noninfected treated (with 1 mM monocaprin), infection, and gentamicin controls. After 3 h, the cells were washed, treated with 1% saponin, and incubated for 10 min at 37°C. GC broth was added to each well, and log reductions were calculated as detailed above. Comparisons of the log reductions at different drug administration times at given concentrations were performed using an unpaired t test and GraphPad Prism (version 6.01).

[6] = system: gonococcal cells (isolate NCCP 11945); experiment: Log reduction in artificial tear fluid with or without calcium chloride; type: cell-based, Neisseria gonorrhoeae; settings: calcium 1 mM; Fig. 2
Method: The antigonococcal properties of the seven selected fatty acids were tested in artificial tear fluid, which contained calcium chloride. The addition of 1 mM lauric acid, tridecanoic acid, or sodium dodecanoate gave no reduction in bacterial cell number after exposure, in contrast to the results seen when they were tested in culture medium (Fig. 2). […] This was most likely due to the negative effect of calcium on the aqueous solubility of these candidates.
Artificial tear fluid was made as described by Mirejovsky and others ([39]) with or without calcium chloride. […] As with the previous log reductions, 10^7 gonococcal cells (isolate NCCP 11945) were suspended in GC broth. The cell suspension was centrifuged to remove the culture medium, and the bacteria were resuspended in the tear fluid. This was then added to the concentrated organic acid candidates. The cells were then enumerated again after 2 min of exposure to estimate any reduction in cell number due to the exposure to the organic acid.

N. gonorrhoeae = system: N. gonorrhoeae; set-up: method as in PMID 10543766; settings: cited from earlier work
C. trachomatis = system: C. trachomatis; set-up: method as in PMID 9736551; settings: cited from earlier work

For CCCCCCCCCC(=O)OCC(O)CO (centres unmarked) [Monocaprin], the “Log reduction at 1 mM: at least a 4-log reduction in viable bacteria (Yes/No)” value [1] was “Yes”, the “Log reduction at 1 mM (calculated log reduction in viable bacteria)” value ([1]; maximum score 6 = all cells killed) was over 6 log10 and the “Killing of all gonococcal cells for all isolates” value ([2]; 1 mM, 2 min) was “killed all gonococcal cells for all isolates”. The MBC ([2]; lowest concentration giving mean log reduction above 4 from a 2-min exposure) was 500 µM (≈ 123 µg/mL), the “LIVE/DEAD staining of bacteria on infected corneal cells” value [3] was “only dead bacterial cells” and the “Viable bacteria recovered from treated wells” value [3] was “No viable bacteria were recovered”. For the same molecule, the Growth inhibition [4] was “Yes”, the “Efficacy (log reduction) in cell culture model” value ([5]; 0.125 mM, both time points) was “completely ineffective” and the “Killing of N. gonorrhoeae in coculture with corneal cells” value [5] was “killed all N. gonorrhoeae bacteria”. The “Killing of N. gonorrhoeae in coculture with corneal cells” value ([5]; listed as monocaprin) was “complete killing”, the “Bacterial log reduction, comparison of addition times” value ([5]; 0.25 and 0.5 mM, 0 min vs 90 min) was “more effective at 0 min” and the “Effect of calcium in artificial tear fluid on antimicrobial effect” value [6] was “unaffected”. The Antigonococcal properties (N. gonorrhoeae) was “strong antigonococcal properties” and the “Activity against C. trachomatis” value (C. trachomatis) was “bactericidal”.
